In ChEMBL document CHEMBL3991601, “The target landscape of clinical kinase drugs” (Science, 2017) one finds Kd data, which are given here for eleven molecules.

Broadly, the Kd is the concentration at which binding is half-saturated.

One assay deals with T1, Septin-9 (Homo sapiens, UniProt Q9UHD8).
T1 sequence (Q9UHD8 whole entry): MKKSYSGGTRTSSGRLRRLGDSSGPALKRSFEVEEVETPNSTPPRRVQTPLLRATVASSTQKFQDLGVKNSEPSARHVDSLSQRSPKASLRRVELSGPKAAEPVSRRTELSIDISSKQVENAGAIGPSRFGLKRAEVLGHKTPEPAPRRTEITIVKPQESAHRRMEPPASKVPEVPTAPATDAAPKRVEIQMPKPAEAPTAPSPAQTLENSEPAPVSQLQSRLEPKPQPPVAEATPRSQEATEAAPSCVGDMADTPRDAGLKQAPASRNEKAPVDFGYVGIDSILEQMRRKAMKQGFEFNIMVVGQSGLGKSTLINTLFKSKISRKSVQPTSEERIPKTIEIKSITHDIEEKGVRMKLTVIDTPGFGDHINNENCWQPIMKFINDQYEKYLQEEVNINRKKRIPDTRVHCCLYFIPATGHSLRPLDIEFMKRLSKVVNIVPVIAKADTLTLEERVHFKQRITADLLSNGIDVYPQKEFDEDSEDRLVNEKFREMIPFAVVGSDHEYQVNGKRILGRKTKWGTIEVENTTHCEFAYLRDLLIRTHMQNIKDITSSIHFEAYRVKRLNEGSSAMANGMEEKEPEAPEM

The target of assay [1] is T2, Breakpoint cluster region protein (Homo sapiens, UniProt P11274).
T2 sequence (P11274 whole entry): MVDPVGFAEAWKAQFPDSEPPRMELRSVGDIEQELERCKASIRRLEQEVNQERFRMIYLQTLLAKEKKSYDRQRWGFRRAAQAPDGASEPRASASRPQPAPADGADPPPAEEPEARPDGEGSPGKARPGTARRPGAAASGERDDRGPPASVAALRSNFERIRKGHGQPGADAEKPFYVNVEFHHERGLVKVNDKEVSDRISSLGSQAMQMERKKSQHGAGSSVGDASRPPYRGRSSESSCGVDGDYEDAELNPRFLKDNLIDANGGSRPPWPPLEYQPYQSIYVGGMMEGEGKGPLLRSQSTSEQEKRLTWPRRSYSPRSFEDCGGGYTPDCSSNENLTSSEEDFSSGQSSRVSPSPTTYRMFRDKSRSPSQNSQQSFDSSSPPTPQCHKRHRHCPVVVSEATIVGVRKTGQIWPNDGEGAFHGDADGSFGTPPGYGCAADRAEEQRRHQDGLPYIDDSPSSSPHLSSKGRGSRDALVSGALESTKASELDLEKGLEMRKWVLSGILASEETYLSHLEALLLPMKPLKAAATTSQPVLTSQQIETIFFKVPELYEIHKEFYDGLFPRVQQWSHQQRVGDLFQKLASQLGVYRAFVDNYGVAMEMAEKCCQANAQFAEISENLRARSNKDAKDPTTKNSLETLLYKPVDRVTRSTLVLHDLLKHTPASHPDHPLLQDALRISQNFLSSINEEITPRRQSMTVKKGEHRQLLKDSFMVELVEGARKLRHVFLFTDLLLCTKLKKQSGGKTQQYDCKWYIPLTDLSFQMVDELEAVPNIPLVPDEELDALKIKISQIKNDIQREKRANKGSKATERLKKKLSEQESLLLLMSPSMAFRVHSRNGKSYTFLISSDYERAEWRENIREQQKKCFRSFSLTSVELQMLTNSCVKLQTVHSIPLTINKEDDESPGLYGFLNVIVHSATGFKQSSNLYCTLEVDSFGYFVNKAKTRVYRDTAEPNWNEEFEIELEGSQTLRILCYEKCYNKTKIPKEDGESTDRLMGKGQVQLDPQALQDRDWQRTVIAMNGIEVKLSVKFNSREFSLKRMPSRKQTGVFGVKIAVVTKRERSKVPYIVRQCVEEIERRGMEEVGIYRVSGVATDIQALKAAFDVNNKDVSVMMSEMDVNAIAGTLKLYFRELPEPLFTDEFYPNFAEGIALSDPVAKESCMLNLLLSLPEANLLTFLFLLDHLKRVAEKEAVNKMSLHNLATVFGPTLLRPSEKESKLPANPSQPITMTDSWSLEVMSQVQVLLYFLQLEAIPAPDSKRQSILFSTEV

Assay [2] has as its target T3, Succinate--CoA ligase [ADP-forming] subunit beta, mitochondrial (Homo sapiens, UniProt Q9P2R7).
T3 sequence (Q9P2R7 whole entry): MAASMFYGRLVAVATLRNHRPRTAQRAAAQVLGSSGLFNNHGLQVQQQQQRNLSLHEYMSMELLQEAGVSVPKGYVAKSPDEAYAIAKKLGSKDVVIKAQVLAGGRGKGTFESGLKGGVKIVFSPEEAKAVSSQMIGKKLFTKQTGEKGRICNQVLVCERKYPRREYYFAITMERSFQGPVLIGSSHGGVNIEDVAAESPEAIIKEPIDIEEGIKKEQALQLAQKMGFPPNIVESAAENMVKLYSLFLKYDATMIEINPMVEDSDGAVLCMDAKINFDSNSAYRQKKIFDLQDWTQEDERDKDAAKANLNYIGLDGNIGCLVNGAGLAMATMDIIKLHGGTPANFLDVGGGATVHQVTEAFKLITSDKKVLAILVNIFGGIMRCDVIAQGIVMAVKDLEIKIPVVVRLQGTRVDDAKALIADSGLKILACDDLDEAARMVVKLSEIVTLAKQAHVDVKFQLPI

Calls of active or inactive are those of the source.
Also: in the data inactive means no Kd found up to 30 µM.

On to `CCS(=O)(=O)c1cccc(-c2cc(C(=O)NC3CCN(C)CC3)c(C)c3[nH]c4ncc(C)cc4c23)c1` [TAK-901], for which the Kd is > 30 µM (inactive) on Septin-9, 0.133 µM (active) in assay [1] and > 30 µM (inactive) in assay [2].

`CO[C@H]1C[C@@H]2CC[C@@H](C)[C@@](O)(O2)C(=O)C(=O)N2CCCC[C@H]2C(=O)O[C@H]([C@H](C)C[C@@H]2CC[C@@H](OC(=O)C(C)(CO)CO)[C@H](OC)C2)CC(=O)[C@H](C)/C=C(\C)[C@@H](O)[C@@H](OC)C(=O)[C@H](C)C[C@H](C)/C=C/C=C/C=C/1C` [TEMSIROLIMUS]: the Kd (on Septin-9; in assay [1]; in assay [2]) was > 30 µM (inactive) in each case.

Turning to `COc1cc2c(Nc3ccc(Cl)c(Cl)c3F)ncnc2cc1OC[C@@H]1C[C@@H]2CN(C)C[C@@H]2C1` [TESEVATINIB], the Kd on Septin-9 is > 30 µM (inactive); in assay [1], 0.113 µM (active); in assay [2] it was > 30 µM (inactive).

As to `O=C(Cc1ccc(-c2ccc(OCCN3CCOCC3)cc2)cn1)NCc1ccccc1` [TIRBANIBULIN], the Kd (on Septin-9; in assay [1]; in assay [2]) was > 30 µM (inactive) each time.

Consider `O=C1NC(=O)[C@@H](c2cn3c4c(cccc24)CCC3)[C@@H]1c1c[nH]c2ccccc12` [TIVANTINIB], for which the Kd (at Septin-9; in assay [1]; in assay [2]) was > 30 µM (inactive) throughout.

`C[C@@H](NC(=O)c1ncnc(N)c1Cl)c1ncc(C(=O)Nc2cc(C(F)(F)F)c(Cl)cn2)s1` [TOVORAFENIB]: the Kd at Septin-9 is > 30 µM (inactive); in assay [1], 0.296 µM (active); in assay [2] it was > 30 µM (inactive).

As to `Cc1cc(Nc2ncnc3ccc(NC4=NC(C)(C)CO4)cc23)ccc1Oc1ccn2ncnc2c1` [TUCATINIB], the Kd (on Septin-9; in assay [1]; in assay [2]) was > 30 µM (inactive) throughout.

As for `Cn1ncc(Cl)c1-c1cc(C(=O)N[C@H](CN)Cc2ccc(F)c(F)c2)oc1Cl` [UPROSERTIB], the Kd (on Septin-9; in assay [1]; in assay [2]) was > 30 µM (inactive) each time.

With `CC(C)c1cc(CNc2nc(Nc3cc(C4CC4)[nH]n3)cc(N3CCN(C)CC3)n2)on1` [XL-228], the Kd was > 30 µM (inactive) on Septin-9, 0.003 µM (active) in assay [1] and > 30 µM (inactive) in assay [2].

With `C[C@@H](N)c1ccc(C(=O)Nc2ccnc3[nH]ccc23)cc1` [Y-39983], the Kd (on Septin-9; in assay [1]; in assay [2]) was > 30 µM (inactive) throughout.

On to `CN1C/C=C/CCOc2cccc(c2)-c2ccnc(n2)Nc2cccc(c2)C1` [ZOTIRACICLIB], for which the Kd (on Septin-9; in assay [1]; in assay [2]) was > 30 µM (inactive) throughout.
